Laboratory results reported in patent US5436251A, “Treatment of anxiety and gastrointestinal disorders with azabicyclo carbonyl-2-(cyclopropylmethyloxy)benzamide” (John Wyeth & Brother, Limited, priority 1992, dated 1995).

How the values were obtained:
[1] = target: T1, 5-HT3 receptors (Rattus norvegicus, UniProt P35563); experiment: 5-HT3 antagonistic activity in the rat vagus (antagonism of 5-HT depolarization of isolated vagus nerve, Schild analysis); parameters: species or system rat (Sprague-Dawley); settings: for Kb: antagonism of 5-HT depolarization, rat vagus nerve in vitro, Schild analysis, read-out: pA2 (converted)
T1 construct: from tissue; host or cells: isolated vagus nerve segments, Sprague-Dawley rat
T1 sequence (P35563 24-483): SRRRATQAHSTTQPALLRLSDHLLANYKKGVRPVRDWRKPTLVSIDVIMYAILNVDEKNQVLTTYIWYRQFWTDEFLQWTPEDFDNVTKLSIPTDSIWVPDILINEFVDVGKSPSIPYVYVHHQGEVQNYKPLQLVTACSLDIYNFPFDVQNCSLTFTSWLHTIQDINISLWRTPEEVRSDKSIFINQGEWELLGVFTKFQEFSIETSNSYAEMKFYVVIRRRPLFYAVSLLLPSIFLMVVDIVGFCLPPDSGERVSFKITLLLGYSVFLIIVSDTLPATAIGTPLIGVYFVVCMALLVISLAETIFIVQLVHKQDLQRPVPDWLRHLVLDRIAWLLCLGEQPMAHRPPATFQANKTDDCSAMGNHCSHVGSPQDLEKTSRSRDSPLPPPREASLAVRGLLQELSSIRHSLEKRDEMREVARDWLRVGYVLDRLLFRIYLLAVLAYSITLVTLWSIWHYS
Protocol: Compound A, the compound of GB 2236528A and the compounds disclosed in GB 2213816A are tested for 5-HT3 antagonistic activity in the rat vagus by the following procedure:
The method is similar to that described by Ireland and Tyers, Br. J. Pharmac., 1987, 90, 229-238 and is dependent upon the ability of 5-HT to depolarize the vagus nerve in vitro.
Segments of the vagus nerve from Sprague-Dawley rats were placed in a perspex chamber and perfused with Krebs solution. Electrodes, positioned at either end of the nerve segment, were used to record the potential differences which ensued upon the addition of various concentrations of 5-HT to one end of the nerve segment.
Concentration-response curves to 5-HT were obtained in this manner prior to and following equilibration of the nerve segment with Krebs solution containing the test-substance.

[2] = Potential anxiolytic activity: mouse exploratory activity in a two-compartment light/dark box; type: in vivo; settings: for minimal effective dose: Mus musculus, sc, read-out: minimum effective dose (MED)
Protocol: Compound A, the compound of GB 2236528A and a representative number of compounds disclosed in GB 2213816A which had high pA2 values in the 5-HT3 -antagonist test procedure given above were tested for potential anxiolytic activity by a test procedure measuring mouse exploratory activity in a two-compartment light/dark box based upon the procedure of B Costall et al, Neuropharmacology, 1987, 26, 195-200 and J. N. Crawley et al, Pharmac. Biochemo Behav., 1980, 13, 167-170. The test involves observing groups of mice placed in an open topped box, one third of which is painted black and illuminated under a dim red light and partitioned from the remainder of the box which is painted white and brightly illuminated. Access between the two sections is via an opening in the centre of the partition. The groups of mice are treated with vehicle or test compound and various behavioural parameters of the animals are measured including the number of exploratory rearings made by the mice in each section and the number of times the mice cross lines marked on the floor of each section. For each treatment group the mean numbers of line crossings and rears in each section of the box are calculated. Differences between drug-treated groups and vehicle-treated controls are compared using Student's unpaired t-test. […] Test compounds are considered to be active if they induce a similar set of changes and, in particular, if they produce a significant (p<0.05) increase in rearing activity in the light section of the box.

[3] = significant (p<0.05) increase in rearing activity in the light section

## O=C(NC(=O)c1ccccc1OCC1CC1)N[C@H]1C[C@H]2CC[C@@H](C1)N2 [Compound A, (endo)-N-[[[8-azabicyclo[3.2.1]-octan-3-yl]amino]carbonyl]-2-(cyclopropylmethyloxy)benzamide]
[1]
  Kb: 0.398 nM
[1]; rat vagus, comparison in words
  potency as 5-HT3 antagonist compared with GB 2236528A and GB 2213816A compounds: surprisingly more potent as 5-HT3 -antagonists
[2]; [3]
  minimal effective dose: 0.001 mg/kg
[2]; mouse light/dark box, s.c., comparison in words
  potency as potential anxiolytic compared with GB 2236528A and GB 2213816A compounds: surprisingly more potent

## O=C(NC(=O)c1ccccc1OCC1CC1)NC1CC2CCC(C1)N2 (stereo not shown) [Example 1]
[2]; s.c., significant (p<0.05) increase in rearing activity in the light section
  minimum effective dose (MED): 0.1 mg/kg

## CN1[C@@H]2CC[C@H]1C[C@@H](NC(=O)NC(=O)c1ccccc1OCC1CC1)C2 [Compound of GB 2236528A, (endo)-N-[[(8-methyl-8-azabicyclo[3.2.1]octan-3-yl)amino]carbonyl]-2-(cyclopropylmethoxy]benzamide]
[1]
  Kb: 1.26 nM
[2]; [3]
  minimal effective dose: 0.01 mg/kg
